According to patent US9101628B2, “Methods and composition of treating a flaviviridae family viral infection” (The Board of Trustees of the Leland Stanford Junior …, priority 2007, dated 2015):

Tested on: HCV RNA replication
Assay: RNA replication inhibition assay (luciferase reporter-linked HCV genome)
Conditions: Hepatitis C virus, percentage of untreated control population; for activity at 5 µM: read-out: Residual Luciferase activity, 5 micromolar; for activity at 10 µM: read-out: Residual Luciferase activity, 10 micromolar

SMILES	activity at 5 µM	activity at 10 µM
Cc1cc2nc(CN3CCCC3=O)n(Cc3ccc(Cl)cc3)c2cc1C [Compound 63]	< 80%	> 80%
Cc1cc2nc([C@@H](C)N3CCC[C@@H]3CO)n(Cc3ccc(Cl)cc3)c2cc1C [Compound 92]	< 55%	< 20%
Cc1ccccc1Cn1cnc2c(NS(C)(=O)=O)c(C)c(C)cc21 [Compound 74]	> 80%	> 80%
CC(=O)N1CCCC(Cn2c(CN3CCCC3)nc3ccccc32)C1 (centres unmarked) [Compound 34]	> 80%	> 80%
FC(F)(F)c1nc2ccccc2n1Cc1ccc(Cl)c(Cl)c1 [Compound 124]	< 55%	< 55%
O=C(Cc1ccccc1)NCCCc1nc2ccccc2n1Cc1ccc(Cl)cc1 [Compound 111]	< 55%	< 20%
CCOC(=O)Cc1nc2cc(S(C)(=O)=O)ccc2n1Cc1ccccc1 [Compound 151]	< 80%	< 55%
c1ccc2c(c1)nc(CN1CCCC1)n2CC1CCCNC1 (centres unmarked) [Compound 39]	< 80%	< 80%
CCc1nc2ccccc2n1Cc1ccc(Cl)cc1 [Compound 112]	> 80%	< 80%
Cc1cc2nc([C@@H](C)C3CCC[C@H]3CO)n(Cc3ccc(Cl)cc3)c2cc1C (some centres unmarked) [Compound 90]	< 80%	< 55%
Clc1ccc(Cn2c(CN3CCCCCC3)nc3ccccc32)cc1 [Compound 27]	< 80%	< 55%
CCOC(=O)CSc1nc2cc(S(C)(=O)=O)ccc2n1Cc1ccccc1 [Compound 153]	> 80%	< 80%
Clc1ccc(Cn2c(-c3cncs3)nc3ccccc32)cc1 [Compound 43]	< 80%	< 55%
Clc1ccc(Cn2c(CN3CCOCC3)nc3ccccc32)cc1 [Compound 127]	< 55%	< 55%
Cc1cc2c(ncn2Cc2ccc(Cl)cc2)c(CS(C)(=O)=O)c1C [Compound 81]	> 80%	< 80%
N#Cc1cnc2c(ccn2Cc2ccc(Cl)cc2)c1 [Compound 103]	> 80%	< 55%
Cc1cc2c(ncn2Cc2ccc(Cl)cc2)c(NC(=O)c2ccccc2)c1C [Compound 71]	> 80%	> 80%
Fc1cc2ncn(Cc3ccc(Cl)cc3)c2cc1F [Compound 94]	< 80%	< 55%
CS(=O)(=O)c1ccc2c(c1)nc(S)n2Cc1ccccc1 [Compound 152]	< 80%	< 55%
Cc1cc2ncn(Cc3ccc(Cl)c(Cl)c3)c2cc1C [Compound 131]	< 80%	< 55%
CC(=O)NCc1nc2ccccc2n1Cc1ccc(Cl)cc1 [Compound 110]	> 80%	> 80%
CS(=O)(=O)c1ccc2c(c1)ncn2Cc1ccccc1 [Compound 149]	> 80%	> 80%
Cc1ccc2c(nc(CN3CCCC3=O)n2Cc2ccc(Cl)cc2)c1C [Compound 33]	> 80%	> 80%
Cc1cc2ncn(Cc3ccc(Cl)cc3Cl)c2cc1C [Compound 130]	< 55%	< 20%
O=C1CCCN1Cc1nc2ccccc2n1Cc1ccc(Cl)cc1 [Compound 12]	< 80%	< 80%

SMILES	activity at 5 µM	activity at 10 µM
COC(=O)c1ccc(Cn2cnc3ccccc32)cc1 [Compound 139]	< 80%	< 55%
Cc1cc2nc(CN3CCC[C@H]3CO)n(Cc3ccc(Cl)cc3)c2cc1C [Compound 47]	< 80%	< 80%
O=C(O)c1ccc2ncn(Cc3ccc(Cl)cc3)c2c1 [Compound 45]	> 80%	> 80%
Clc1ccccc1Cn1c(CN2CCCC2)nc2ccccc21 [Compound 19]	> 80%	> 80%
Cc1cc2ncn(Cc3ccc(F)cc3)c2cc1C [Compound 129]	> 80%	> 80%
Clc1ccc(Cn2c(CN3CCCC3)nc3cc(Cl)c(Cl)cc32)cc1 [Compound 157]	< 80%	< 55%
Cc1c(Cl)cnc2c1ccn2Cc1ccc(Cl)cc1 [Compound 102]	< 80%	< 80%
Cc1cc2nc(CN3CCCC3C(N)=O)n(Cc3ccc(Cl)cc3)c2cc1C (centres unmarked) [Compound 52]	< 80%	< 80%
Cc1cc2nc(C(C)O)n(Cc3ccc(Cl)cc3)c2cc1C (centres unmarked) [Compound 87]	< 55%	< 55%
COC(=O)C1CCN(Cc2nc3ccccc3n2Cc2ccc(Cl)cc2)C1 (centres unmarked) [Compound 7]	> 80%	> 80%
CC(C)(C)c1ccc(Cn2cnc3ccccc32)cc1 [Compound 141]	< 55%	< 20%
Cc1cc2nc(CN3CCC[C@H]3C)n(Cc3ccc(Cl)cc3)c2cc1C [Compound 98]	< 55%	< 20%
CC(C)c1ccc(Cn2c(CN3CCCC3)nc3ccccc32)cc1 [Compound 41]	< 80%	< 80%
Cc1cc2c(nc(C)n2Cc2ccccc2)c(NS(C)(=O)=O)c1C [Compound 76]	> 80%	< 80%
Oc1ccc2c(c1)ncn2Cc1ccc(Cl)cc1 [Compound 60]	< 20%	< 20%
Cc1ccc2c(c1)ncn2Cc1ccc(Cl)cc1 [Compound 53]	< 55%	< 20%
N#Cc1ccc2c(ccn2Cc2ccc(Cl)cc2)n1 [Compound 104]	< 55%	< 55%
Cc1cc2nc(-c3ccc[nH]c3=O)n(Cc3ccc(Cl)cc3)c2cc1C [Compound 158]	< 80%	< 80%
CCN(CC)c1c(C)c(C)cc2c1ncn2Cc1ccc(Cl)cc1 [Compound 73]	< 80%	< 55%
Cc1cc2ncn(Cc3ccc(C#N)cc3)c2cc1C [Compound 138]	< 80%	> 80%
CS(=O)(=O)N1CCCC(Cn2c(CN3CCCC3)nc3ccccc32)C1 (centres unmarked) [Compound 35]	> 80%	> 80%
Clc1ccc(Cn2cnc3ncccc32)cc1 [Compound 86]	> 80%	< 80%
O=C(O)c1ccc(Cn2c(CN3CCCC3)nc3ccccc32)cc1 [Compound 15]	> 80%	> 80%
Oc1ccc2ncn(Cc3ccc(Cl)cc3)c2c1 [Compound 61]	> 80%	< 80%
CCCCCc1nc2ccccc2n1Cc1ccc(Cl)cc1 [Compound 116]	< 55%	< 20%

SMILES	activity at 5 µM	activity at 10 µM
CC1CCC(C)N1Cc1nc2ccccc2n1Cc1ccc(Cl)cc1 (centres unmarked) [Compound 26]	> 80%	> 80%
COc1cc2ncn(Cc3ccc(Cl)cc3)c2cc1OC [Compound 57]	< 80%	< 55%
Cc1cccc(Cn2cnc3c(NS(C)(=O)=O)c(C)c(C)cc32)c1 [Compound 75]	> 80%	< 80%
Cc1cc2ncn(Cc3ccc(Cl)cc3)c2cc1Cl [Compound 65]	< 80%	< 55%
Clc1ccc(Cn2cnc3ccncc32)cc1 [Compound 83]	< 80%	< 80%
Cc1ccc2c(c1)nc(CN1CCCC1)n2Cc1ccc(Cl)cc1 [Compound 28]	> 80%	< 55%
Clc1ccc(Cn2cnc3cc(Cl)ccc32)cc1 [Compound 58]	< 80%	
N#Cc1cnc2ccn(Cc3ccc(Cl)cc3)c2c1 [Compound 105]	> 80%	> 80%
COc1ccc(Cn2cnc3ccccc32)cc1 [Compound 144]	< 55%	< 55%
Clc1ccc(CCn2cnc3ccccc32)cc1 [Compound 46]	> 80%	< 80%
CCCCNC(=O)Nc1c(C)c(C)cc2c1ncn2Cc1ccc(Cl)cc1 [Compound 72]	> 80%	> 80%
OC[C@@H]1CCCN1Cc1nc2ccccc2n1Cc1ccc(Cl)cc1 [Compound 25]	< 80%	< 55%
Cc1cc2nc(CN3CCC[C@H]3CN3CCCC3)n(Cc3ccc(Cl)cc3)c2cc1C [Compound 50]	< 20%	< 20%
Cc1cc2nc(CC3CCCC3)n(Cc3ccc(Cl)cc3)c2cc1C [Compound 96]	< 80%	< 55%
c1cncc(Cn2c(CN3CCCC3)nc3ccccc32)c1 [Compound 21]	> 80%	> 80%
CS(=O)(=O)N1CCC(Cn2c(CN3CCCC3)nc3ccccc32)CC1 [Compound 38]	< 80%	> 80%
Cc1cc2ncn(Cc3cc(Cl)cc4c3OCCO4)c2cc1C [Compound 154]	< 80%	< 55%
Cc1cc2c(ncn2Cc2ccccc2)c(N)c1C [Compound 146]	< 80%	< 80%
Cc1cc2nc([C@H](C)N3CCC[C@@H]3CO)n(Cc3ccc(Cl)cc3)c2cc1C [Compound 91]	> 80%	> 80%
Clc1cccc(Cn2c(CN3CCCC3)nc3ccccc32)c1 [Compound 18]	< 80%	< 80%
Cc1ccc(Cn2cnc3ccccc32)cc1 [Compound 142]		< 55%
Nc1nc2ccccc2n1C(=O)c1ccc(Cl)cc1 [Compound 133]	> 80%	< 55%
Clc1ccc(Cn2c(Cc3ccccc3)nc3ccccc32)cc1 [Compound 120]	< 80%	< 55%
CCCC(=O)NCc1nc2ccccc2n1Cc1ccccc1C [Compound 109]	> 80%	> 80%
